Usually bioavailability stands for the share of a dose that reaches the circulation, judged against a reference dose that is usually intravenous.

Series [1] in a line: pH-dependent chemical stability (hydrolysis of ester linkage). To be noted: at pH>6. It counts as physicochemical.
A short description of series [2]: oral bioavailability in rats. To be noted: rat, in vivo.
Series [3] is described as follows: oral bioavailability in dogs. Particulars: dog, in vivo.
Series [4] in a line: permeability of R 411. The class given is in vitro ADME. To be noted: limited permeability.
Series [5] in a line: oral bioavailability in monkeys. To be noted: monkey, in vivo.

The structures appear in SMILES notation.

As to `CCN(CC)CCOC(=O)[C@H](Cc1ccc(NC(=O)c2c(Cl)cccc2Cl)cc1)NC(=O)c1c(C)cccc1Cl.Cl` [R 411, N-(2-chloro-6-methylbenzoyl)-4-[(2,6-dichlorobenzoyl)amino]-L-phenylalanine-2-(diethylamino)ethyl ester hydrochloride], the stability to hydrolysis result in series [1] is listed as “prone to alkaline hydrolysis”. Besides, the bioavailability in series [2] was 20%; in series [3] it was 20%; in series [5], 6%. The permeability in series [4] is 58×10^−6 cm^2/sec.
